Results published in US20070128217A1 (priority 2003, published 2007).

Key:
[1] = tested on: antibodies in sera from SARS patients (sera 1a, 1b, 2, 6, 37, 62, London, SARS-yellow, SARS-green); assay type: binding, human; set-up: Binding of serum 6 to linear peptides of protein X1 of SARS-CoV Urbani / Binding of serum 37 to linear peptides of protein X1 of SARS-CoV Urbani / Binding of serum 6 to looped/cyclic peptide (PEPSCAN-ELISA) / Binding of serum 37 to looped/cyclic peptide (PEPSCAN-ELISA) / Binding of serum 37 to looped/cyclic peptides of protein X1 of SARS-CoV Urbani / Binding of serum 6 to linear peptides of protein X2 / Binding of serum 37 to linear peptides of protein X2 / Binding of serum 37 to looped/cyclic peptides of protein X2 of SARS-CoV Urbani / Binding of serum 6 to linear peptides of protein M of SARS-CoV Urbani / Binding of serum 37 to linear peptides of protein M of SARS-CoV Urbani / Binding of serum 6 to looped/cyclic peptides of protein M of SARS-CoV Urbani / Binding of serum 37 to looped/cyclic peptides of protein M of SARS-CoV Urbani / Binding of serum 6 to linear peptides of protein X3 of SARS-CoV Urbani / Binding of serum 37 to linear peptides of protein X3 of SARS-CoV Urbani / Binding of serum 37 to looped/cyclic peptides of protein X3 of SARS-CoV Urbani / Binding of serum 6 to linear peptides of protein X4 of SARS-CoV Urbani / Binding of serum 37 to linear peptides of protein X4 of SARS-CoV Urbani / Binding of serum 37 to looped/cyclic peptides of protein X4 of SARS-CoV Urbani / Binding of serum 6 to linear peptides of protein X5 of SARS-CoV Urbani / Binding of serum 37 to linear peptides of protein X5 of SARS-CoV Urbani / Binding of serum 37 to looped/cyclic peptides of protein X5 of SARS-CoV Urbani / Binding of serum 6 to linear peptides of protein N of SARS-CoV Urbani / Binding of serum 37 to linear peptides of protein N of SARS-CoV Urbani / Binding of serum 6 to linear peptide (PEPSCAN-ELISA) / Binding of serum 1a to looped/cyclic peptides of protein N of SARS-CoV Urbani / Binding of serum 1b to looped/cyclic peptides of protein N of SARS-CoV Urbani / Binding of serum 2 to looped/cyclic peptides of protein N of SARS-CoV Urbani / Binding of serum 6 to looped/cyclic peptides of protein N of SARS-CoV Urbani / Binding of serum 37 to looped/cyclic peptides of protein N of SARS-CoV Urbani / Binding of serum 62 to looped/cyclic peptides of protein N of SARS-CoV Urbani / Binding of serum London to looped/cyclic peptides of protein N of SARS-CoV Urbani / Binding of serum SARS-green to looped/cyclic peptides of protein N of SARS-CoV Urbani: unit not given here
[2] = tested on: control sera (pooled serum of ten healthy LUMC hospital workers; commercial negative donor pooled serum from the Dutch bloodbank); assay type: binding, human; set-up: Binding of Control serum LUMC to linear peptides / Binding of Control serum Blood-bank to linear peptides / Binding of Control serum LUMC to looped peptides / Binding of Control Serum Blood-Bank to Looped peptides / Binding of Control serum LUMC to linear peptides of the protein M of SARS-CoV Urbani / Binding of Control serum Blood-bank to linear peptides of the protein M of SARS-CoV Urbani / Binding of Control serum LUMC to looped peptides of the protein M of SARS-CoV Urbani / Binding of Control Serum Blood-Bank to Looped peptides of the protein M of SARS-CoV Urbani: unit not given here
[3] = tested on: rabbit serum obtained by immunizing a rabbit with the SARS-CoV strain Frankfurt 1; assay type: binding; set-up: Binding of a rabbit serum to linear peptides / Binding of a rabbit serum to looped peptides / Rabbit serum linear peptides / Rabbit serum looped peptides / Binding of a rabbit serum to linear peptides of protein N of SARS-CoV Urbani (Rabbit serum linear peptides) / Binding of a rabbit serum to looped/cyclic peptides of protein N of SARS-CoV Urbani (Rabbit serum looped peptides): unit not given here
[4] = tested on: recombinant human anti-SARS-CoV antibody 03-018; assay type: binding; set-up: Binding of antibody 03-018 to linear peptides of the N protein of SARS-CoV Urbani / Binding of antibody 03-018 to looped/cyclic peptides of the N protein of SARS-CoV Urbani: unit not given here

Sequence	Binding of serum 1a to linear peptide (PEPSCAN-ELISA) [1]	Binding of serum 1a to looped/cyclic peptides of protein N of SARS-CoV Urbani [1]	Binding of serum 1b to linear peptide (PEPSCAN-ELISA) [1]	Binding of serum 1b to looped/cyclic peptides of protein N of SARS-CoV Urbani [1]	Binding of serum 2 to linear peptide (PEPSCAN-ELISA) [1]	Binding of serum 2 to looped/cyclic peptides of protein N of SARS-CoV Urbani [1]	Binding of serum 6 to looped/cyclic peptides of protein N of SARS-CoV Urbani [1]	Binding of serum 37 to looped/cyclic peptides of protein N of SARS-CoV Urbani [1]	Binding of serum 62 to looped/cyclic peptides of protein N of SARS-CoV Urbani [1]	Binding of serum London to looped/cyclic peptides of protein N of SARS-CoV Urbani [1]	Binding of serum SARS-green to looped/cyclic peptides of protein N of SARS-CoV Urbani [1]	Binding of serum SARS-yellow to looped/cyclic peptides of protein N of SARS-CoV Urbani [1]	Binding of Control Serum Blood-Bank to Looped peptides [2]	Binding of Control serum Blood-bank to linear peptides [2]	Binding of Control serum LUMC to linear peptides [2]	Binding of Control serum LUMC to looped peptides [2]	Binding of a rabbit serum to linear peptides of protein N of SARS-CoV Urbani (Rabbit serum linear peptides) [3]	Binding of a rabbit serum to looped/cyclic peptides of protein N of SARS-CoV Urbani (Rabbit serum looped peptides) [3]	Binding of antibody 03-018 to linear peptides of the N protein of SARS-CoV Urbani [4]	Binding of antibody 03-018 to looped/cyclic peptides of the N protein of SARS-CoV Urbani [4]	other results
DRLNQLESKVSGKGQ	0.3	0.4	0.1	0.3	0.3	0.6	0.4	0.6	0.4	0.4	0.4	0.8	0.6	0.9	0.7	0.6	0.3	0.4	0.1	0.3	Binding of serum 6 to linear peptide (PEPSCAN-ELISA) [1]: 0.2; Binding of serum 37 to linear peptide (PEPSCAN-ELISA) [1]: 0.8; Binding of serum 62 to linear peptide (PEPSCAN-ELISA) [1]: 0.7; Binding of serum London to linear peptide (PEPSCAN-ELISA) [1]: 0.5; Binding of serum SARS-green to linear peptide (PEPSCAN-ELISA) [1]: 0.5; Binding of serum SARS-yellow to linear peptide (PEPSCAN-ELISA) [1]: 0.7
DSTDNNQNGGRNGAR		0.4		0.3		0.5	0.3	0.7	0.4	0.5	0.8	0.5	0.6	0.8	0.7	0.7	0.1	0.5	0.2	0.3	Binding of serum 1a to linear peptides of protein N of SARS-CoV Urbani [1]: 0.2; Binding of serum 1b to linear peptides of protein N of SARS-CoV Urbani [1]: 0.1; Binding of serum 2 to linear peptides of protein N of SARS-CoV Urbani [1]: 0.2; Binding of serum 6 to linear peptides of protein N of SARS-CoV Urbani [1]: 0.2; Binding of serum 37 to linear peptides of protein N of SARS-CoV Urbani [1]: 1.0; Binding of serum 62 to linear peptides of protein N of SARS-CoV Urbani [1]: 0.8; Binding of serum London to linear peptides of protein N of SARS-CoV Urbani [1]: 0.5; Binding of serum SARS-green to linear peptides of protein N of SARS-CoV Urbani [1]: 0.5; Binding of serum SARS-yellow to linear peptides of protein N of SARS-CoV Urbani [1]: 0.5
DYKHWPQIAQFAPSA		0.4		0.3		0.4	0.2	0.6	0.6	0.5	0.2	0.7					0.1	0.5	0.1	0.2	Binding of serum 1a to linear peptides of protein N of SARS-CoV Urbani [1]: 0.3; Binding of serum 1b to linear peptides of protein N of SARS-CoV Urbani [1]: 0.2; Binding of serum 2 to linear peptides of protein N of SARS-CoV Urbani [1]: 0.2; Binding of serum 6 to linear peptides of protein N of SARS-CoV Urbani [1]: 0.2; Binding of serum 37 to linear peptides of protein N of SARS-CoV Urbani [1]: 0.9; Binding of serum 62 to linear peptides of protein N of SARS-CoV Urbani [1]: 0.9; Binding of serum London to linear peptides of protein N of SARS-CoV Urbani [1]: 0.7; Binding of serum SARS-green to linear peptides of protein N of SARS-CoV Urbani [1]: 0.4; Binding of serum SARS-yellow to linear peptides of protein N of SARS-CoV Urbani [1]: 0.8; Control Serum Blood-Bank Looped peptides [2]: 0.6; Control serum Blood-bank linear peptides [2]: 0.9; Control serum LUMC linear peptides [2]: 0.8; Control serum LUMC looped peptides [2]: 0.7
EASKKPRQKRTATKQ	0.2	0.3	0.1	0.2	0.3	0.4	0.3	0.6	0.5	0.5	0.3	0.4	0.8	0.9	0.8	0.6	0.2	0.2	0.1	0.3	Binding of serum 6 to linear peptide (PEPSCAN-ELISA) [1]: 0.3; Binding of serum 37 to linear peptide (PEPSCAN-ELISA) [1]: 0.7; Binding of serum 62 to linear peptide (PEPSCAN-ELISA) [1]: 0.7; Binding of serum London to linear peptide (PEPSCAN-ELISA) [1]: 0.5; Binding of serum SARS-green to linear peptide (PEPSCAN-ELISA) [1]: 0.3; Binding of serum SARS-yellow to linear peptide (PEPSCAN-ELISA) [1]: 0.6
